Several values for one entry are separate records, joined by “and”; a condition that tells them apart may be missing. Equal entries are not always repeated.
Legend:
[1] = target: T1, human KOR (Homo sapiens, UniProt P41145, G319L); experiment: cell-based; details: HEK-293T
T1 construct: expressed in transfected cells; host or cells: HEK 293T (ATCC, CRL-3216)

[2] = target: T2, human KOR (Homo sapiens, UniProt P41145, E209A); experiment: cell-based; details: HEK-293T
T2 construct: expressed in transfected cells; host or cells: HEK 293T (ATCC, CRL-3216)

[3] = target: human KOR (Homo sapiens, UniProt P41145); experiment: cell-based
[4] = target: T3, human KOR (Homo sapiens, UniProt P41145, W287A); experiment: cell-based; details: HEK-293T
T3 construct: expressed in transfected cells; host or cells: HEK 293T (ATCC, CRL-3216)

[5] = target: T4, human KOR (Homo sapiens, UniProt P41145, F114L); experiment: cell-based; details: HEK-293T
T4 construct: expressed in transfected cells; host or cells: HEK 293T (ATCC, CRL-3216)

[6] = target: T5, human KOR (Homo sapiens, UniProt P41145, S211A); experiment: cell-based; details: HEK-293T
T5 construct: expressed in transfected cells; host or cells: HEK 293T (ATCC, CRL-3216)

[7] = target: T6, human KOR (Homo sapiens, UniProt P41145, S324C); experiment: cell-based; details: HEK-293T
T6 construct: expressed in transfected cells; host or cells: HEK 293T (ATCC, CRL-3216)

[8] = target: T7, human KOR (Homo sapiens, UniProt P41145, K227A); experiment: cell-based; details: HEK-293T
T7 construct: expressed in transfected cells; host or cells: HEK 293T (ATCC, CRL-3216)

[9] = target: T8, human KOR (Homo sapiens, UniProt P41145, Y320L); experiment: cell-based; details: HEK-293T
T8 construct: expressed in transfected cells; host or cells: HEK 293T (ATCC, CRL-3216)

[10] = target: T9, human KOR (Homo sapiens, UniProt P41145, Q115N); experiment: cell-based; details: HEK-293T
T9 construct: expressed in transfected cells; host or cells: HEK 293T (ATCC, CRL-3216)

[11] = target: T10, human KOR (Homo sapiens, UniProt P41145, V134A); experiment: cell-based; details: HEK-293T
T10 construct: expressed in transfected cells; host or cells: HEK 293T (ATCC, CRL-3216)

[12] = target: T11, human KOR (Homo sapiens, UniProt P41145, W124L); experiment: cell-based; details: HEK-293T
T11 construct: expressed in transfected cells; host or cells: HEK 293T (ATCC, CRL-3216)

[13] = target: DOR (Homo sapiens, UniProt P41143); experiment: Radioligand competition binding (3H-Diprenorphine)
[14] = target: T12, human KOR (Gustducin) (Homo sapiens, UniProt P41145, N141A); experiment: cell-based; details: HEK-293T
T12 construct: expressed in transfected cells; host or cells: HEK293T

[15] = target: T13, human KOR (Gustducin) (Homo sapiens, UniProt P41145, D155A); experiment: cell-based; details: HEK-293T
T13 construct: expressed in transfected cells; host or cells: HEK293T

[16] = target: T14, human KOR (Gustducin) (Homo sapiens, UniProt P41145, R274A); experiment: cell-based; details: HEK-293T
T14 construct: expressed in transfected cells; host or cells: HEK293T

[17] = target: T15, human KOR (Gustducin) (Homo sapiens, UniProt P41145, F283A); experiment: cell-based; details: HEK-293T
T15 construct: expressed in transfected cells; host or cells: HEK293T

[18] = target: T16, human KOR (Gustducin) (Homo sapiens, UniProt P41145, R271A); experiment: cell-based; details: HEK-293T
T16 construct: expressed in transfected cells; host or cells: HEK293T

[19] = target: T17, human KOR (Gustducin) (Homo sapiens, UniProt P41145); experiment: cell-based
T17 construct: expressed in transfected cells; host or cells: HEK293T

[20] = target: T18, human KOR (Gustducin) (Homo sapiens, UniProt P41145, Q115N); experiment: cell-based; details: HEK-293T
T18 construct: expressed in transfected cells; host or cells: HEK293T

[21] = target: T19, human KOR (Gustducin) (Homo sapiens, UniProt P41145, R170A); experiment: cell-based; details: HEK-293T
T19 construct: expressed in transfected cells; host or cells: HEK293T

[22] = target: T20, human KOR (Gustducin) (Homo sapiens, UniProt P41145, K200A); experiment: cell-based; details: HEK-293T
T20 construct: expressed in transfected cells; host or cells: HEK293T

[23] = target: T21, human KOR (Gustducin) (Homo sapiens, UniProt P41145, Y320L); experiment: cell-based; details: HEK-293T
T21 construct: expressed in transfected cells; host or cells: HEK293T

[24] = target: T22, human KOR (Gustducin) (Homo sapiens, UniProt P41145, N326A); experiment: cell-based; details: HEK-293T
T22 construct: expressed in transfected cells; host or cells: HEK293T

[25] = target: T23, human KOR (Gustducin) (Homo sapiens, UniProt P41145, F114L); experiment: cell-based; details: HEK-293T
T23 construct: expressed in transfected cells; host or cells: HEK293T

[26] = target: T24, human KOR (Gustducin) (Homo sapiens, UniProt P41145, G319L); experiment: cell-based; details: HEK-293T
T24 construct: expressed in transfected cells; host or cells: HEK293T
T24 sequence (P41145 whole entry G319L): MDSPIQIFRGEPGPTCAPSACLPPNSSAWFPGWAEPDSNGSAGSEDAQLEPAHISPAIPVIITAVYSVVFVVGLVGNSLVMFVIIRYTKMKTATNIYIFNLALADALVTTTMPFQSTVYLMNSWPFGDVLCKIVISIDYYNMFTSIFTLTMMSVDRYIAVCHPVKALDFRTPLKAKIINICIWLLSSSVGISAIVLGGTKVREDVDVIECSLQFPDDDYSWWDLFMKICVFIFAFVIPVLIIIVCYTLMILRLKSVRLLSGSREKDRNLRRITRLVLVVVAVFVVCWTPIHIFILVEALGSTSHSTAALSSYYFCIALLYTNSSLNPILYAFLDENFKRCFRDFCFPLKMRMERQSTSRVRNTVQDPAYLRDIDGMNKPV

T4 sequence (P41145 whole entry F114L): as the sequence (P41145 whole entry G319L) above, with F114L, L319G counted along it
T10 sequence (P41145 whole entry V134A): as the sequence (P41145 whole entry G319L) above, with V134A, L319G counted along it
T1 sequence (P41145 whole entry G319L): as the sequence (P41145 whole entry G319L) above
T2 sequence (P41145 whole entry E209A): as the sequence (P41145 whole entry G319L) above, with E209A, L319G counted along it
T8 sequence (P41145 whole entry Y320L): as the sequence (P41145 whole entry G319L) above, with L319G, Y320L counted along it
T5 sequence (P41145 whole entry S211A): as the sequence (P41145 whole entry G319L) above, with S211A, L319G counted along it
T11 sequence (P41145 whole entry W124L): as the sequence (P41145 whole entry G319L) above, with W124L, L319G counted along it
T17 sequence (P41145 whole entry): as the sequence (P41145 whole entry G319L) above, with L319G counted along it
T23 sequence (P41145 whole entry F114L): as the sequence (P41145 whole entry G319L) above, with F114L, L319G counted along it
T20 sequence (P41145 whole entry K200A): as the sequence (P41145 whole entry G319L) above, with K200A, L319G counted along it
T6 sequence (P41145 whole entry S324C): as the sequence (P41145 whole entry G319L) above, with L319G, S324C counted along it
T14 sequence (P41145 whole entry R274A): as the sequence (P41145 whole entry G319L) above, with R274A, L319G counted along it
T21 sequence (P41145 whole entry Y320L): as the sequence (P41145 whole entry G319L) above, with L319G, Y320L counted along it
Sequence of human KOR (Homo sapiens, UniProt P41145) (P41145 whole entry): as the sequence (P41145 whole entry G319L) above, with L319G counted along it
T12 sequence (P41145 whole entry N141A): as the sequence (P41145 whole entry G319L) above, with N141A, L319G counted along it
T22 sequence (P41145 whole entry N326A): as the sequence (P41145 whole entry G319L) above, with L319G, N326A counted along it
T7 sequence (P41145 whole entry K227A): as the sequence (P41145 whole entry G319L) above, with K227A, L319G counted along it
Sequence of DOR (P41143 whole entry): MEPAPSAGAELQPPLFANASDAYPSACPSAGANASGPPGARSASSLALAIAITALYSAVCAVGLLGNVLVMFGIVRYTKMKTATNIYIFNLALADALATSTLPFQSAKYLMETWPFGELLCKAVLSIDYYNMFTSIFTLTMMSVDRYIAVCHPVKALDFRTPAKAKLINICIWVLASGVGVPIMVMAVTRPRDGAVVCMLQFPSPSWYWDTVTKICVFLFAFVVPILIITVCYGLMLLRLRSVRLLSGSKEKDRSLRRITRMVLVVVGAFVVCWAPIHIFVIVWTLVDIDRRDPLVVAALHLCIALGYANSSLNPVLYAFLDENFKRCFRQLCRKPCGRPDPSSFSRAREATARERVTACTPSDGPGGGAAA
T15 sequence (P41145 whole entry F283A): as the sequence (P41145 whole entry G319L) above, with F283A, L319G counted along it
T19 sequence (P41145 whole entry R170A): as the sequence (P41145 whole entry G319L) above, with R170A, L319G counted along it
T9 sequence (P41145 whole entry Q115N): as the sequence (P41145 whole entry G319L) above, with Q115N, L319G counted along it
T18 sequence (P41145 whole entry Q115N): as the sequence (P41145 whole entry G319L) above, with Q115N, L319G counted along it
T13 sequence (P41145 whole entry D155A): as the sequence (P41145 whole entry G319L) above, with D155A, L319G counted along it
T16 sequence (P41145 whole entry R271A): as the sequence (P41145 whole entry G319L) above, with R271A, L319G counted along it
T3 sequence (P41145 whole entry W287A): as the sequence (P41145 whole entry G319L) above, with W287A, L319G counted along it

For `CN(C(=O)/C=C/c1ccoc1)[C@@H]1CC[C@@]2(O)[C@H]3Cc4ccc(O)c5c4[C@@]2(CCN3CC2CC2)[C@H]1O5` [Nalfurafine, nalfurafine], the Emax [1] was 103 ± 4%, the activation at 1 pM ([1]; read-out: cAMP response) was 18.4% and the activation at 31.62 pM ([1]; read-out: cAMP response) was 24%. It also gave an activation at 0.0001 µM ([1]; read-out: cAMP response) of 46%, an activation at 0.001 µM ([1]; read-out: cAMP response) of 62.9% and an activation at 0.01 µM ([1]; read-out: cAMP response) of 94.9%. The activation at 0.1 µM ([1]; read-out: cAMP response) was 107%, the activation at 1 µM ([1]; read-out: cAMP response) was 104% and the activation at […] ([1]; read-out: cAMP response) was 44.6% and 75.9% and 100%. For the same molecule, the Emax [2] was 100 ± 2%, the activation at 1 pM ([2]; read-out: cAMP response) was 28.4% and the activation at 3.162 pM ([2]; read-out: cAMP response) was 77.1%. For the same molecule, the activation at 10 pM ([2]; read-out: cAMP response) was 90.6%, the activation at 31.62 pM ([2]; read-out: cAMP response) was 94.9% and the activation at 0.0001 µM ([2]; read-out: cAMP response) was 99.2%. For the same molecule, the activation at 0.001 µM ([2]; read-out: cAMP response) was 99.5%, the activation at 0.01 µM ([2]; read-out: cAMP response) was 101% and the activation at 0.1 µM ([2]; read-out: cAMP response) was 100%. The activation at 1 µM ([2]; read-out: cAMP response) was 98.2%, the activation at […] ([2]; read-out: cAMP response) was 96.6% and 99.9% and 99.6% and 98.7% and the reduction of potency [3] was 5 fold. The Emax [4] was 98 ± 4%, the Emax [5] was 97 ± 4% and the activation at 3.162 pM ([5]; read-out: cAMP response) was 9.34%. The activation at 31.62 pM ([5]; read-out: cAMP response) was 29.6%, the activation at 0.0001 µM ([5]; read-out: cAMP response) was 36.4% and the activation at 0.001 µM ([5]; read-out: cAMP response) was 68%. For the same molecule, the activation at 0.01 µM ([5]; read-out: cAMP response) was 90.9%, the activation at 0.1 µM ([5]; read-out: cAMP response) was 99.9% and the activation at 1 µM ([5]; read-out: cAMP response) was 97.6%. The activation at […] ([5]; read-out: cAMP response) was 66.6% and 88.8% and 97.4% and 103%, the Emax [6] was 107 ± 2% and the activation at 1 pM ([6]; read-out: cAMP response) was 16.4%. It also gave an activation at 3.162 pM ([6]; read-out: cAMP response) of 71%, an activation at 10 pM ([6]; read-out: cAMP response) of 91.3% and an activation at 31.62 pM ([6]; read-out: cAMP response) of 99.8%. It also gave an activation at 0.0001 µM ([6]; read-out: cAMP response) of 106%, an activation at 0.001 µM ([6]; read-out: cAMP response) of 107% and an activation at 0.01 µM ([6]; read-out: cAMP response) of 108%. For the same molecule, the activation at 0.1 µM ([6]; read-out: cAMP response) was 107%, the activation at 1 µM ([6]; read-out: cAMP response) was 103% and the activation at […] ([6]; read-out: cAMP response) was 107% (2×) and 105% and 104%. The Emax [7] was 99 ± 2%, the Emax [8] was 100 ± 3% and the Emax [9] was 105 ± 2%. It also gave an activation at 1 pM ([9]; read-out: cAMP response) of 16.5%, an activation at 3.162 pM ([9]; read-out: cAMP response) of 13.2% and an activation at 10 pM ([9]; read-out: cAMP response) of 16.1%. It also gave an activation at 31.62 pM ([9]; read-out: cAMP response) of 35.7%, an activation at 0.0001 µM ([9]; read-out: cAMP response) of 59% and an activation at 0.001 µM ([9]; read-out: cAMP response) of 95.7%. It also gave an activation at 0.01 µM ([9]; read-out: cAMP response) of 103%, an activation at 0.1 µM ([9]; read-out: cAMP response) of 105% and an activation at 1 µM ([9]; read-out: cAMP response) of 105%. The activation at […] ([9]; read-out: cAMP response) was 78.6% and 99.7% and 105% (2×), the Emax [10] was 98 ± 3% and the Emax [11] was 93 ± 3%. The activation at 3.162 pM ([11]; read-out: cAMP response) was 23.5%, the activation at 10 pM ([11]; read-out: cAMP response) was 48.2% and the activation at 31.62 pM ([11]; read-out: cAMP response) was 53.1%. It also gave an activation at 0.0001 µM ([11]; read-out: cAMP response) of 62.8%, an activation at 0.001 µM ([11]; read-out: cAMP response) of 82.5% and an activation at 0.01 µM ([11]; read-out: cAMP response) of 96.2%. The activation at 0.1 µM ([11]; read-out: cAMP response) was 104%, the activation at 1 µM ([11]; read-out: cAMP response) was 96.6% and the activation at […] ([11]; read-out: cAMP response) was 58.2% and 90% and 99.4% and 95.7%. It also gave an Emax [12] of 98 ± 3%, an activation at 10 pM ([12]; read-out: cAMP response) of 17.5% and an activation at 0.0001 µM ([12]; read-out: cAMP response) of 29.6%. The activation at 0.001 µM ([12]; read-out: cAMP response) was 65.5%, the activation at 0.01 µM ([12]; read-out: cAMP response) was 88.1% and the activation at 0.1 µM ([12]; read-out: cAMP response) was 106%. The activation at 1 µM ([12]; read-out: cAMP response) was 99.8%, the activation at […] ([12]; read-out: cAMP response) was 45.8% and 75.2% and 98.3% and 97.1% and the Ki [13] was 0.427 nM. For the same molecule, the Emax [14] was 79.1%, the Emax [15] was 91.8% and the Emax [16] was 82%. For the same molecule, the Emax [17] was 100%, the Emax [18] was 56.9% and the Emax% [19] was 65%. It also gave an Emax ([19]; HEK-293T) of 65.6%, an Emax [20] of 62.9% and an Emax [21] of 77.5%. For the same molecule, the Emax [22] was 75.7%, the Emax [23] was 80% and the Emax [24] was 49.2%. The Emax [25] was 60.6% and the Emax [26] was 80.9%.

From publication PMC10008561 (Nature Communications, 2023)
